Source: US11135181B2, “Treatment for depression and depressive disorders” (Medlab IP Pty Ltd, priority 2014, dated 2021)

Columns and labels:
Type in all cases: in vivo, human
[1] = system: subjects diagnosed with depression; assay: Outcome Questionnaire-45 (OQ45) in subjects with treatment-resistant depression; conditions: n=8
Excerpt: OQ45 is a self-report symptom and distress inventory designed as an independent measure of symptom distress and functioning to assess the response to intervention at regular intervals such as on a weekly bases (α=0.93, & κ>0.83). The OQ45 consists of 45 items with a five point scale. A high total score […] indicates a high level of symptom distress (anxiety, depression, and somatic, work and social role problems). Lower scores indicate less severity of problems. Average community non-clinical scores cut off (CO) occur at about >63, and changes of 14 points in either direction are typically considered clinically significant change and are reliable. […]
(§1) Depression was monitored in the treated subjects over the eight week course using a variety of well known methodologies: the Beck Depression Inventory (BDI); the Depression and Anxiety Stress Scale (DASS); Outcome Questionnaire-45 (OQ45); the Warwick-Edinburgh Mental Well-Being Scale (WBS); and a Quality of Life (QoL score).
(§2) Three subjects were administered a probiotic supplement containing magnesium orotate for eight weeks, and measures of depression (BDI and OQ45) assessed. […]
(§3) BDI and OQ45 were assessed for each subject as described in Example 1, at the beginning of the study prior to the initiation of treatment and again at the completion of eight weeks of combined magnesium orotate plus probiotic administration. […]

[2] = system: subjects diagnosed with depression; assay: Clinical depression status at study endpoint; conditions: 8 weeks, 1600 mg per day
Excerpt: (§4) The study received ethical approval from the Medical Research Ethics Committee (MREC) University of Queensland, Australia, within the guidelines of the National Statement on Ethical Conduct in Human Research. All participants provided written informed consent for the study.
(§5) The subjects were selected for inclusion in the study as follows. At the completion of a 15 week study investigating SAMe treatment of depression, suboptimal treatment responders (n=8) were inducted into the present orotate study after a 2 week wash out period. Sub-optimal treatment responders were defined as those still experiencing clinical depression by the SAMe study endpoint, which consisted of six participants with major depression and two with moderate depression. The subjects comprised six females between 33 to 70 years of age (mean age of 53 years) and two males between 48-54 years of age (mean age of 51 years). The orotate study was conducted as a single group study for 8 weeks (mean time for SAMe responders) with a focus was on efficacy.
(§6) Inclusion criteria also required a primary diagnosis of major depression that has a verifiable history of being treatment resistant, current medication type being SSRIs (for standardisation purposes), and at least 18 years of age with no upper age limit. Participants were also asked not to take any nutritional supplements such as B group vitamins or other supplements that have antidepressant effects (a list was provided to participants).
The magnesium orotate was administered in capsule form, each capsule comprising 400 mg magnesium orotate. The daily dose of 1600 mg magnesium orotate was provided as two capsules taken in the morning and two capsules taken at night.

[3] = system: subjects diagnosed with depression; assay: Beck Depression Inventory (BDI) in subjects with treatment-resistant depression
Excerpt: BDI is a 21-item self-report inventory that is widely used to assess depression. It has high internal constancy and correlates highly with other self-report measures of depression (α=0.60−0.90).
as §4
as §5, with “efficacy. […]” for “efficacy.”
as §1, §2, §3

[4] = system: subjects diagnosed with depression; assay: Depression and Anxiety Stress Scale (DASS) in subjects with treatment-resistant depression
Excerpt: The DASS short form is a 21 item self-report scale designed to measure depression and anxiety and was used here as a secondary self-report assessment. The DASS has high internal consistency and yields meaningful discriminations in a variety of settings (α=0.88-0.96).
as §4, §5
Inclusion criteria also required a primary diagnosis of major depression that has a verifiable history of being treatment resistant, current medication type being SSRIs (for standardisation purposes), and at least 18 years of age with no upper age limit. Participants were also asked not to take any nutritional supplements such as B group vitamins or other supplements that have antidepressant effects (a list was provided to participants). […]
as §1

[5] = system: subjects diagnosed with depression; assay: Quality of Life (QoL) score in subjects with treatment-resistant depression
Excerpt: QoL has 16 items and evaluates perceived satisfaction with life over a number of domains (α=0.85). QoL typically provides an important evaluation of perception of life circumstances and stressors.
as §4, §5, §6
The magnesium orotate was administered in capsule form, each capsule comprising 400 mg magnesium orotate. […]
as §1

[6] = system: subjects diagnosed with depression; assay: Warwick-Edinburgh Mental Well-Being Scale (WBS) in subjects with treatment-resistant depression
Excerpt: WBS has 14 items and assesses feelings and thoughts associated with mood (α=0.91) with higher scores indicate better mood. It has a different factor structure to the BDI and DASS and was used in this study as a measure of mood improvement.
as §4
The subjects were selected for inclusion in the study as follows. At the completion of a 15 week study investigating SAMe treatment of depression, suboptimal treatment responders (n=8) were inducted into the present orotate study after a 2 week wash out period. Sub-optimal treatment responders were defined as those still experiencing clinical depression by the SAMe study endpoint, which consisted of six participants with major depression and two with moderate depression. […]
as §1

[7] = after 8 weeks of 1600 mg per day oral capsules, n=8

In the case of magnesium orotate, the “OQ45 mean score, Post-Treatment” value ([1]; after 8 weeks of 1600 mg per day oral capsules) is reported as 54.2, the “OQ45 mean score, Pre-Treatment” value ([1]; baseline before treatment) is reported as 86.6 and the “share of the group in clinical remission by the endpoint” value [2] is reported as 50%. For the same substance, the “share of the group mildly depressed” value [2] was 10%, the “share of the group that remained moderately depressed” value [2] was 30% and the “share of the group without any clinical change” value [2] was 10%. The “BDI change score (mean, pre- versus post treatment)” value ([3]; 8 weeks, 1600 mg per day, p=0.021) was 19, the “BDI mean score, Post-Treatment” value [3, 7] was 14.1 and the “BDI mean score, Pre-Treatment” value ([3]; baseline before treatment, n=8 SAMe suboptimal responders on SSRIs) was 33.8. The “DASS mean score, Post-Treatment” value [4, 7] was 25.2, the “DASS mean score, Pre-Treatment” value ([4]; baseline before treatment, n=8) was 44.7 and the “DASS paired difference, mean (DASS-DASS8)” value ([4]; baseline minus week 8, 1600 mg per day, Sig. (2-tailed) .032) was 19.5. The “QoL mean score, Post-Treatment” value [5, 7] was 76.0, the “QoL mean score, Pre-Treatment” value ([5]; baseline before treatment, n=8) was 55.2 and the “QoL paired difference, mean (QoL-QoL8)” value ([5]; baseline minus week 8, 1600 mg per day, Sig. (2-tailed) .027) was −20.75. The “WBS mean score, Pre-Treatment” value ([6]; baseline before treatment, n=8, higher score = better mood) was 34.6 and the “WBS paired difference, mean (MWBS-WMBS8)” value ([6]; baseline minus week 8, 1600 mg per day, Sig. (2-tailed) .025) was −11.
